# Patent US20180153826A1, “MATERIALS AND METHODS FOR THE TREATMENT OF CYSTIC FIBROSIS” (UNIVERSITY OF FLORIDA RESEARCH FOUNDATION, INC., priority 2015, published 2018)
# What was measured:
# Design in all cases: species or system rat
# [1] = system: HCO3^− secretion by colonic mucosa; assay: Basal HCO3^− secretion (pH stat JHCO3 and Isc, Ussing chamber)
# Method: Experiments were performed using non-fasting male Sprague-Dawley rats and C57BL/6 mice. Rats weighting 100-400 g were obtained from Charles River Laboratories. Mice lacking CaSR expression in intestinal epithelial cells (CaSR^−/−) and their CaSR^+/+ littermates were bred and maintained. CaSR^−/− mice were generated as previously described. Briefly, CaSR flox/flox mice were bred with transgenic mice expressing Cre Recombinase under the control of the villin 1 promoter and genotyped prior to all experiments after an approximate 10-12 generations. Mice were used at 5-10 weeks of age. Animals were fed and maintained on regular chow (Harlan) with free access to water before sacrifice. Animals were sacrificed with standard CO2 inhalation followed by cervical dislocation. The colons were isolated, cut open along the mesenteric border into a flat sheet, and flushed with ice-cold Ringer solutions. […]
# (§1) Two types of approaches were used in the measurement of colonic HCO3^− secretion, namely, measurement of lumen pH or pH stat titration of net alkalinization by colonic mucosa. […] The amount of the acid delivered per unit time per surface area was used to quantitate HCO3^− secretion by the mucosa. Measurements were recorded continuously and mean values for consecutive 5 or 10 min periods were averaged. The rate of HCO3^− secretion (JHCO3) is expressed as μEq/hr/cm^2. The short-circuit current (Isc) was measured in microamperes (μA) and converted into μEq/hr/cm^2. Tissue resistance (R, Ω cm^2) was calculated from Ohm's law.
# Two adjacent sheets of mucosa from each colon were mounted into two Ussing chambers and bathed luminally with HCO3^−-free Cl^− Ringer solution and serosally with HCO3^−-containing Cl^− Ringer solution. After 15 to 30 min, when Isc and JHCO3 had stabilized, the CaSR agonist, R568 was added to the serosal or mucosal side of tissue, and changes in Isc and JHCO3 during the 15-30 min period ensuing after the addition of the agonist were determined.
# [2] = system: Cl^−/HCO3^− exchange; assay: Cl^−/HCO3^− exchange activity (Cl^−-dependent HCO3^− secretion); conditions: 10 μM, added to serosal side
# Method: Stripped mucosal sheets were mounted into Ussing chambers (window area=0.3-0.5 cm^2, Physiologic Instruments, San Diego, Calif.). The mucosal side of tissue was bathed with an unbuffered HCO3^−-free Cl^− Ringer solution (see Table 2 for detailed composition) circulated by a gas lift with 100% O2 while the serosal side was bathed with buffered Cl^− Ringer solution (pH 7.4) that contained 25 mM HCO3^− and gassed with 5% CO2/95% O2. Each side contained 3-5 ml of solution and the temperature of the solution was adjusted to and maintained at 37° C. by heated water-jacketed reservoirs. […]
# as §1, with “law. […]” for “law.”
# [3] = system: ENaC; assay: ENaC activity as amiloride-sensitive bumetanide-insensitive Isc, weanling distal colon; conditions: 10 μM; 2-3 week old rat distal colon
# Method: FIG. 17. The inhibitory effect of […] on ENaC was examined electrophysiologically by measuring amiloride-sensitive short-circuit current responses in the presence or absence of […]. Weanling infant distal colonic mucosa, which expresses highest activity of ENaC, is employed and mounted in Ussing chamber. FIGS. 19A-19C. […] Here, the activity of ENaC is measured as amiloride-sensitive bumetanide-insensitive Isc. […] FIGS. 20A-20C. […] The activity of ENaC was measured as amiloride-sensitive bumetanide-insensitive Isc. […] Secretory Cl current is mediated by apical CFTR. This Cl secretory Isc is sensitive to bumetanide, applied to the basolateral side of the epithelium. There, bumetanide inhibits Cl entry from blood into the cell; thus, in the presence of bumetanide, the secretory Cl current is eliminated. Absorptive Na current is mediated by apically located epithelial Na channel (ENaC). This latter current is particularly high in this weanling age and is sensitive to amiloride, when it is applied luminally.
compound,measurement,setting,value
"COc1cccc([C@@H](C)NCCCc2ccccc2Cl)c1.Cl [R568, 2-Chloro-N-[(1R)-1-(3-methoxyphenyl)ethyl]-benzenepropanamine hydrochloride]",basal JHCO3 response,"[1]; 10 μM, added to serosa",significantly stimulated
same,Isc in presence of R568,"[1]; basal, absence 1.36±0.40, n=5, p>0.05",1.48±0.44 μEq/hr/cm^2
same,effects of R568 compared with reduced Ca^2+o,[1]; under normal Ca^2+o condition,"qualitatively similar, albeit with a slightly less pronounced effect"
same,Cl^−/HCO3^− exchange activity,[2],stimulation
same,bumetanide-insensitive amiloride-inhibitable ENaC-mediated basal Isc,[3],inhibited
